Source: US20220220103A1, “CYCLIN-DEPENDENT KINASE INHIBITORS” (SPV THERAPEUTICS INC., priority 2018, published 2022)
Like-named read-outs stand apart in the source and are kept apart here. One block for each molecule: values may come before it.

Assays:
Assay type in all cases: biochemical
[1] = target: CDK2-CYCLINA (Homo sapiens, UniProt P24941); assay: Microfluidic LabChip inhibition assay, CDK2-CYCLINA; conditions: ATP 50 μM
Experimental: (§1) The reaction was terminated by the addition of EDTA. The plates were analyzed using a Caliper LabChip 3000.
(§2) Additional inhibition assays were performed as described above.

[2] = target: CDK9-CYCLINT1 (Homo sapiens, UniProt P50750); assay: Microfluidic LabChip inhibition assay, CDK9-CYCLINT1; conditions: ATP 10 μM
CDK9-CYCLINT1, sequence (P50750 whole entry): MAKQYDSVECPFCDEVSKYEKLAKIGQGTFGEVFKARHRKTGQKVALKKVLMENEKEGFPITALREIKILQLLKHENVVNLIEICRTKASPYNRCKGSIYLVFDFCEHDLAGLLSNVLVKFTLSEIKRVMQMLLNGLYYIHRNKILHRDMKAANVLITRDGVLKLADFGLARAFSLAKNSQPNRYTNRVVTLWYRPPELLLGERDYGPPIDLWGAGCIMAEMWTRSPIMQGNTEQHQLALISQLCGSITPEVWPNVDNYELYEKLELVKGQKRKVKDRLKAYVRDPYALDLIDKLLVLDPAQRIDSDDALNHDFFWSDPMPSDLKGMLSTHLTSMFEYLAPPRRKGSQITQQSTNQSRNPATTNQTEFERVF
CDK9-CYCLINT1, sequence (O60563 whole entry partner): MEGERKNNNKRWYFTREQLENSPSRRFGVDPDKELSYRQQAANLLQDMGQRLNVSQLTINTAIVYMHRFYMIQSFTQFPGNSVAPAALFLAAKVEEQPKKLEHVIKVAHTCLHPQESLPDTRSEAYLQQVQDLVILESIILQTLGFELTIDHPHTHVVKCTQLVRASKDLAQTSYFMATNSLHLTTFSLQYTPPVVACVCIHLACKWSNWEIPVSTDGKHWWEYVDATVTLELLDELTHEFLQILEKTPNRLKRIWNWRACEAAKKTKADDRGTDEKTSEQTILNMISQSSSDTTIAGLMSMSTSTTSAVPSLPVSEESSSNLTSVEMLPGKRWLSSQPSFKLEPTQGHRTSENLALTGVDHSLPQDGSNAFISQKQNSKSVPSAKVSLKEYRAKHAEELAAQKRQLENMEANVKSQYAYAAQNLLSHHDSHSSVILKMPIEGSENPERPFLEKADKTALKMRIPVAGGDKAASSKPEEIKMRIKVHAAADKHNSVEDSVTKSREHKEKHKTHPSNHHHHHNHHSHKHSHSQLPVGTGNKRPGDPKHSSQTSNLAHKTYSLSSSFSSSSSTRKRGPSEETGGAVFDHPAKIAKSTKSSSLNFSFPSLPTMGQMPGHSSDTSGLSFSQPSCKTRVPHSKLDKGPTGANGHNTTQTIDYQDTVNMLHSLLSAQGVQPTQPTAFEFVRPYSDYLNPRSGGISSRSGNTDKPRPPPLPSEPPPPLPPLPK
Experimental: as §1, §2

[3] = target: CDK7 CyclinH (Homo sapiens, UniProt P50613); assay: Inhibition assay, CDK7 CyclinH
CDK7 CyclinH, sequence (P50613 whole entry): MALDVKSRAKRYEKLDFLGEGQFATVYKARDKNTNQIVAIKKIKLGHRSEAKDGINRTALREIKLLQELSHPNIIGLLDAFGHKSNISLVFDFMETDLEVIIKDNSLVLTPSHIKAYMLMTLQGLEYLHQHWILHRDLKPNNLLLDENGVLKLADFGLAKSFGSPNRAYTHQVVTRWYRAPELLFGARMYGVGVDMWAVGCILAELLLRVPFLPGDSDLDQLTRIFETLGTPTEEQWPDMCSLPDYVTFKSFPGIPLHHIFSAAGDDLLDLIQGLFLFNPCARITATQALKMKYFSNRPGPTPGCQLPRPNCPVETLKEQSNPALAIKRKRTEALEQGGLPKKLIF
CDK7 CyclinH, sequence (P51946 whole entry partner): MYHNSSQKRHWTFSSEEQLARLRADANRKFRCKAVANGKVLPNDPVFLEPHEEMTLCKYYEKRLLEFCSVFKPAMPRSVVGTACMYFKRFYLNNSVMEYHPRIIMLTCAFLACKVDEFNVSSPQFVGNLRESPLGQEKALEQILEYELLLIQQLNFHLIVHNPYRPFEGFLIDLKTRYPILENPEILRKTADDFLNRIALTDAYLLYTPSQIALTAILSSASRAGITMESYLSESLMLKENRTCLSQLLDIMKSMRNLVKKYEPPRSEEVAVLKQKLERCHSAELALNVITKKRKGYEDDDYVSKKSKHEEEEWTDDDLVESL
CDK7 CyclinH, sequence (P51948 whole entry partner): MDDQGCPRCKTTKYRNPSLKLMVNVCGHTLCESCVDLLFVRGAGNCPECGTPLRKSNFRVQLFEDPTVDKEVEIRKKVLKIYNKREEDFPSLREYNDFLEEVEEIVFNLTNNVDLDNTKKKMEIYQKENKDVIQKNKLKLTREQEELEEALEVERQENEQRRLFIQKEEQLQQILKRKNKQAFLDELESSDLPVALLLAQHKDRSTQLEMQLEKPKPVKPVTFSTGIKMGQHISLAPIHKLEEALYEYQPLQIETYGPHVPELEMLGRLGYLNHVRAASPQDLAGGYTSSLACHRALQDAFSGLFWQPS
Experimental: as §1, §2

[4] = target: CDK1/B (Homo sapiens, UniProt P06493); assay: Inhibition assay, CDK1/B; conditions: read-out: CDK1/B IC50
CDK1/B, sequence (P06493 whole entry): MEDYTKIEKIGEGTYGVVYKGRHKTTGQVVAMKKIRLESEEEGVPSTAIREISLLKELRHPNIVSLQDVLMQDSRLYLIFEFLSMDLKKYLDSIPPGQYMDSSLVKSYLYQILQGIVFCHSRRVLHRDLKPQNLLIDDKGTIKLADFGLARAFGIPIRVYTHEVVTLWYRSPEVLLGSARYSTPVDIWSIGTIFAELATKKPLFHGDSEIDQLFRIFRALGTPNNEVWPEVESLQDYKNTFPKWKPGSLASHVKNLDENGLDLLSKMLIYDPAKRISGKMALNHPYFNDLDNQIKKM
CDK1/B, sequence (P14635 whole entry partner): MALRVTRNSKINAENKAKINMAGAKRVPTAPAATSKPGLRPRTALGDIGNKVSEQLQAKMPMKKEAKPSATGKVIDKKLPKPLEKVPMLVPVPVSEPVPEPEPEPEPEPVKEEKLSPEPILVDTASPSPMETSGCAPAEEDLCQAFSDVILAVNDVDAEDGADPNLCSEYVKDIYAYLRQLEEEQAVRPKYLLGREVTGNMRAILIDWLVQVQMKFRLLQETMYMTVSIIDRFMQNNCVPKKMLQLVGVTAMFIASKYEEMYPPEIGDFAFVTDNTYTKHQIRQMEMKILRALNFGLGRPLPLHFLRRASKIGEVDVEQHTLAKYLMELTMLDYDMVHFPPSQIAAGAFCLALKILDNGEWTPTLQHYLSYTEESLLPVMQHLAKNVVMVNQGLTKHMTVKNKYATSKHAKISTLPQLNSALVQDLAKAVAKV
Experimental: as §1, §2

[5] = target: CDK4-CYCLIND1 (Homo sapiens, UniProt P11802); assay: Microfluidic LabChip inhibition assay, CDK4-CYCLIND1; conditions: ATP 200 μM, second values in parentheses on the line below, not explained, read-out: CDK4 CyclinD1 IC50
CDK4-CYCLIND1, sequence (P11802 whole entry): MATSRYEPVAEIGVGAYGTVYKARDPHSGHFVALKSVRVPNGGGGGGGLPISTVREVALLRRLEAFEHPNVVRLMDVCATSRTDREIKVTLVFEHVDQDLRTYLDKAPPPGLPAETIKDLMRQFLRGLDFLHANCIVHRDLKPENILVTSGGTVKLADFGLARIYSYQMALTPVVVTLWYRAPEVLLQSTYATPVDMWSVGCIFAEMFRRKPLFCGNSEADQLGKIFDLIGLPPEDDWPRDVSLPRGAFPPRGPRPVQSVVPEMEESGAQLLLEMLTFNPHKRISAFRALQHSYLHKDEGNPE
CDK4-CYCLIND1, sequence (P24385 whole entry partner): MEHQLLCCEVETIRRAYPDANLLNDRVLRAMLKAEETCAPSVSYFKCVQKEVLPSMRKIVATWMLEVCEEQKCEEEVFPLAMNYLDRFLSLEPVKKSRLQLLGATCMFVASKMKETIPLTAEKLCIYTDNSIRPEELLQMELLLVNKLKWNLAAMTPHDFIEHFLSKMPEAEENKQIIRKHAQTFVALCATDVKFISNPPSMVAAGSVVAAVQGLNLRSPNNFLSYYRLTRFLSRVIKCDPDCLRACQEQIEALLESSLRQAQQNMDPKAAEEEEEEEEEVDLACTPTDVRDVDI
Experimental: as §1, §2

Structure (SMILES): CN(C)CCOc1ccc(Nc2ncc3cc(C#N)c(=O)n(C45CC(C4)C5)c3n2)nc1 [Compound B149, 8-(bicyclo[1.1.1]pentan-1-yl)-2-((5-(2-(dimethylamino)ethoxy)pyridin-2-yl)amino)-7-oxo-7,8-dihydropyrido[2,3-d]pyrimidine-6-carbonitrile]
IC50 ([1]; Table 3a): > 10000 nM
IC50 ([1]; Table 3b): > 10000 nM
IC50 ([2]; Table 3a): 733 nM
IC50 ([2]; Table 3b): 733 nM
IC50 ([3]; Table 3a): > 10000 nM
IC50 ([3]; Table 3b): > 10000 nM
IC50 ([4]; Table 3a): > 10000 nM
IC50 ([4]; Table 3b): > 10000 nM
IC50 ([5]; Table 3a): 505 nM
IC50 ([5]; Table 3b): 505 nM

Structure (SMILES): CC(=O)c1c(C)c2cnc(Nc3ccc(N4CCN(C)CC4)cn3)nc2n(C23CC(C2)C3)c1=O [Compound B93, 6-acetyl-8-(bicyclo[1.1.1]pentan-1-yl)-5-methyl-2-((5-(4-methylpiperazin-1-yl)pyridin-2-yl)amino)pyrido[2,3-d]pyrimidin-7(8H)-one]
IC50 ([1]; Table 3a): > 10000 nM
IC50 ([1]; Table 3b): > 10000 nM
IC50 ([2]; Table 3a): 1230 nM
IC50 ([2]; Table 3b): 1230 nM
IC50 ([3]; Table 3a): > 10000 nM
IC50 ([3]; Table 3b): > 10000 nM
IC50 ([4]; Table 3a): > 10000 nM
IC50 ([4]; Table 3b): > 10000 nM
IC50 ([5]; Table 3a): 48.3 nM
IC50 ([5]; Table 3b): 48.3 nM

Structure (SMILES): Cc1c(C(=O)N(C)C)c(=O)n(C23CC(C2)C3)c2nc(NC3CC4CCC3C4)ncc12 (stereo not shown) [Compound B158, 8-(bicyclo[1.1.1]pentan-1-yl)-2-(bicyclo[2.2.1]heptan-2-ylamino)-N,N,5-trimethyl-7-oxo-7,8-dihydropyrido[2,3-d]pyrimidine-6-carboxamide]
IC50 ([1]; Table 3a): > 10000 nM
IC50 ([1]; Table 3b): > 10000 nM
IC50 ([2]; Table 3a): 2750 nM
IC50 ([2]; Table 3b): 2750 nM
IC50 ([3]; Table 3a): > 10000 nM
IC50 ([4]; Table 3a): > 10000 nM
IC50 ([5]; Table 3a): 1590 nM
IC50 ([5]; Table 3b): 1590 nM

Structure (SMILES): CC(=O)c1c(C)c2cnc(Nc3ccc(OCCN4CCCC4)cn3)nc2n(C2CCCC2)c1=O [Compound B66, 6-acetyl-8-cyclopentyl-5-methyl-2-((5-(2-(pyrrolidin-1-yl)ethoxy)pyridin-2-yl)amino)pyrido[2,3-d]pyrimidin-7(8H)-one]
IC50 ([1]; Table 3a): > 10000 nM
IC50 ([1]; Table 3b): > 10000 nM
IC50 ([2]; Table 3a): 422 nM
IC50 ([2]; Table 3b): 422 nM
IC50 ([3]; Table 3a): > 10000 nM
IC50 ([3]; Table 3b): > 10000 nM
IC50 ([4]; Table 3a): > 10000 nM
IC50 ([4]; Table 3b): > 10000 nM
IC50 ([5]; Table 3a): 15.2 nM
IC50 ([5]; Table 3b): 15.2 nM

Structure (SMILES): Cc1c(C(=O)N(C)C)c(=O)n(C2CCCC2)c2nc(Nc3ccc(N4CC(C)NC(C)C4)cc3)ncc12 (stereo not shown) [Compound B151, 8-cyclopentyl-2-((4-(3,5-dimethylpiperazin-1-yl)phenyl)amino)-N,N,5-trimethyl-7-oxo-7,8-dihydropyrido[2,3-d]pyrimidine-6-carboxamide]
IC50 ([1]; Table 3a): > 10000 nM
IC50 ([1]; Table 3b): > 10000 nM
IC50 ([2]; Table 3a): 5140 nM
IC50 ([2]; Table 3b): 5140 nM
IC50 ([3]; Table 3a): > 10000 nM
IC50 ([3]; Table 3b): > 10000 nM
IC50 ([4]; Table 3a): > 10000 nM
IC50 ([4]; Table 3b): > 10000 nM
IC50 ([5]; Table 3a): 8.93 nM
IC50 ([5]; Table 3b): 8.93 nM

Next, values leading:

IC50 ([1]; Table 3a): > 10000 nM
IC50 ([1]; Table 3b): > 10000 nM
IC50 ([2]; Table 3a): > 10000 nM
IC50 ([2]; Table 3b): > 10000 nM
IC50 ([3]; Table 3a): > 10000 nM
IC50 ([3]; Table 3b): > 10000 nM
IC50 ([4]; Table 3a): > 10000 nM
IC50 ([4]; Table 3b): > 10000 nM
IC50 ([5]; Table 3a): > 10000 nM
IC50 ([5]; Table 3b): > 10000 nM
Structure (SMILES): CS(=O)(=O)N1CCC(Nc2ncc3cc(C#N)c(=O)n(C45CC(C4)C5)c3n2)CC1 [Compound B113, 8-(bicyclo[1.1.1]pentan-1-yl)-2-((1-(methylsulfonyl)piperidin-4-yl)amino)-7-oxo-7,8-dihydropyrido[2,3-d]pyrimidine-6-carbonitrile]

IC50 ([1]; Table 3a): 500 nM
IC50 ([1]; Table 3b): 500 nM
IC50 ([2]; Table 3a): 90.6 nM
IC50 ([2]; Table 3b): 90.6 nM
IC50 ([3]; Table 3a): 2420 nM
IC50 ([3]; Table 3b): 2420 nM
IC50 ([4]; Table 3a): 1300 nM
IC50 ([5]; Table 3a): 4.02 nM
IC50 ([5]; Table 3b): 4.02 nM
Structure (SMILES): CN1CC2(C1)CN(c1ccc(Nc3ncc4cc(C#N)c(=O)n(C5CCCC5)c4n3)cc1)C2 [Compound B159, 8-cyclopentyl-2-((4-(6-methyl-2,6-diazaspiro[3.3]heptan-2-yl)phenyl)amino)-7-oxo-7,8-dihydropyrido[2,3-d]pyrimidine-6-carbonitrile]

IC50 ([1]; Table 3a): 285 nM
IC50 ([1]; Table 3b): 285 nM
IC50 ([2]; Table 3a): 4580 nM
IC50 ([2]; Table 3b): 4580 nM
IC50 ([3]; Table 3a): > 10000 nM
IC50 ([3]; Table 3b): > 10000 nM
IC50 ([4]; Table 3a): 763 nM
IC50 ([5]; Table 3a): 21.3 nM
IC50 ([5]; Table 3b): 21.3 nM
Structure (SMILES): CN(C)C(=O)c1cc2cnc(NC3CCN(S(C)(=O)=O)CC3)nc2n(C2CCCC2)c1=O [Compound B153, 8-cyclopentyl-N,N-dimethyl-2-((1-(methylsulfonyl)piperidin-4-yl)amino)-7-oxo-7,8-dihydropyrido[2,3-d]pyrimidine-6-carboxamide]
